Data on 5 test systems can be found in the supplement of paper PMC10331698.

± gives the standard deviation of the averaged measurements.

What all share (experiment): level (log10 ratio to DMSO vehicle control); higher = higher biomarker level / cell amount than vehicle control
Compound in test [1]: O=S(=O)(O)CCC(F)(F)C(F)(F)C(F)(F)C(F)(F)F [4:2 Fluorotelomer sulfonic acid]
The following applies: in DMSO. How it is done: (§1)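 BioMAP Diversity Plus panel of 12 human primary cell co-culture systems (3C, 4H, LPS, SAg, BT, BF4T, BE3C, CASM3C, HDF3CGF, KF3CT, MyoF, Mphg). Compounds were added 1 h before stimulation and left for 24 h (MyoF 48 h; BT 72 h for soluble read-outs or 6 d for IgG). Biomarkers were read by ELISA, cytotoxicity by SRB, PBMC viability and proliferation by Alamar Blue. Each well value was divided by the mean of 8 DMSO control wells on the same plate and log10 transformed; duplicate blinded samples were tested at 4 concentrations.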

Compound in test [2]: OCC(F)(F)C(F)(F)C(F)(F)C(F)(F)C(F)(F)C(F)(F)F [6:1 Fluorotelomer alcohol]
The following applies: in DMSO. On the procedure:
as §1

Compound in test [3]: O=C(CC(=O)C(F)(F)C(F)(F)C(F)(F)F)c1cccs1 [(Perfluorobutyryl)-2-thenoylmethane]
The conditions noted are these: in DMSO. How it is done: as §1

Compound in test [4]: OCC(F)(F)C(F)(F)C(F)(F)C(F)(F)C(F)(F)C(F)(F)C(F)(F)C(F)(F)C(F)(F)C(F)(F)C(F)(F)F [11:1 Fluorotelomer alcohol]
The conditions noted are these: in DMSO. On the procedure:
as §1

Compound in test [5]: O=C(Cl)C(F)(F)C(F)(F)C(F)(F)C(=O)Cl [Hexafluoroglutaryl chloride]
The conditions noted are these: in DMSO. On the procedure: as §1

Compound in test [6]: FC(F)(I)C(F)(F)C(F)(F)C(F)(F)C(F)(F)C(F)(F)I [1,6-Diiodoperfluorohexane]
The conditions noted are these: 6700 nM; in DMSO. How it is done:
as §1

Compound in test [7]: O=S(=O)(OCC(F)(F)F)C(F)(F)C(F)(F)C(F)(F)C(F)(F)F [2,2,2-Trifluoroethyl perfluorobutanesulfonate]
The following applies: in DMSO. On the procedure:
as §1

For HDF3CGF:CD54/ICAM-1, the “level (log10)” value was -0.013 ± 0.016 in test [1] (6700 nM); -0.01 ± 0.017 in test [1] (20000 nM); -0.0175 ± 0.013 in test [1] (60000 nM); -0.0075 ± 0.011 in test [2] (6700 nM); 0.008 ± 0.02 in test [2] (20000 nM); 0.0075 ± 0.011 in test [2] (60000 nM). Further, the “level (log10)” value in test [3] (6700 nM) was -0.0475 ± 0.011; in test [3] (20000 nM), -0.0295 ± 0.0064; in test [4] (1100 nM) it was 0.001 ± 0.0071; in test [4] (3300 nM) it was -0.0075 ± 0.021; in test [4] (10000 nM) it was -0.012 ± 0.0014; in test [5] (6700 nM), -0.0015 ± 0.0035. The “level (log10)” value in test [5] (20000 nM) was -0.007 ± 0.0042; in test [5] (60000 nM), -0.001 ± 0.0099; in test [6], -0.343; in test [7] (6700 nM), -0.0105 ± 0.018; in test [7] (20000 nM) it was -0.0025 ± 0.022; in test [7] (60000 nM) it was -0.0285 ± 0.028.
As for BE3C:tPA, the “level (log10)” value in test [1] (6700 nM) is 0.012 ± 0.013; in test [1] (20000 nM) it was -0.0315 ± 0.03; in test [1] (60000 nM), 0.011 ± 0.05; in test [2] (6700 nM), 0.0055 ± 0.012; in test [2] (20000 nM), -0.0145 ± 0.019; in test [2] (60000 nM) it was -0.0075 ± 0.0021. Besides, the “level (log10)” value in test [3] (6700 nM) was -0.1 ± 0.014; in test [3] (20000 nM), -0.234 ± 0.011; in test [4] (1100 nM) it was -0.0125 ± 0.011; in test [4] (3300 nM), -0.033 ± 0.011; in test [4] (10000 nM), -0.008 ± 0.016; in test [5] (6700 nM) it was -0.005 ± 0.0014. Also, the “level (log10)” value in test [5] (20000 nM) was -0.009 ± 0.014; in test [5] (60000 nM), -0.0075 ± 0.022; in test [6], -0.032; in test [7] (6700 nM), 0.0045 ± 0.021; in test [7] (20000 nM), 0.028 ± 0.016; in test [7] (60000 nM) it was 0.085 ± 0.031.
Regarding KF3CT:IL-1alpha, the “level (log10)” value in test [1] (6700 nM) is -0.0155 ± 0.0021; in test [1] (20000 nM) it was -0.0355 ± 0.0078; in test [1] (60000 nM), -0.021 ± 0.021; in test [2] (6700 nM) it was -0.005 ± 0.02; in test [2] (20000 nM), 0.0195 ± 0.021; in test [2] (60000 nM), 0.007 ± 0.0071. For the same test system, the “level (log10)” value in test [3] (6700 nM) is 0.0165 ± 0.005; in test [3] (20000 nM) it was 0.009 ± 0.0028; in test [4] (1100 nM), 0.0015 ± 0.028; in test [4] (3300 nM), -0.0425 ± 0.0064; in test [4] (10000 nM) it was -0.021 ± 0.011; in test [5] (6700 nM), -0.0085 ± 0.0078. Moreover, the “level (log10)” value in test [5] (20000 nM) was 0.0095 ± 0.013; in test [5] (60000 nM), -0.012 ± 0.018; in test [6], -0.073; in test [7] (6700 nM), -0.011 ± 0.03; in test [7] (20000 nM), -0.003 ± 0.011; in test [7] (60000 nM), 0.0195 ± 0.0078.
Take CASM3C:PAI-I: the “level (log10)” value in test [1] (6700 nM) is -0.002 ± 0.0014; in test [1] (20000 nM), -0.0015 ± 0.00071; in test [1] (60000 nM) it was -0.002 ± 0.0057; in test [2] (6700 nM) it was -0.0035 ± 0.005; in test [2] (20000 nM) it was -0.0015 ± 0.00071; in test [2] (60000 nM), 0.003 ± 0.0085. In addition, the “level (log10)” value in test [3] (6700 nM) was -0.0135 ± 0.005; in test [3] (20000 nM) it was -0.008 ± 0.0057; in test [4] (1100 nM), -0.001 ± 0.0071; in test [4] (3300 nM), -0.0055 ± 0.005; in test [4] (10000 nM), -0.0005 ± 0.015; in test [5] (6700 nM) it was -0.0135 ± 0.021. In addition, the “level (log10)” value was 0.0025 ± 0.0078 in test [5] (20000 nM); 0.0065 ± 0.0021 in test [5] (60000 nM); 0.011 in test [6]; -0.0075 ± 0.0092 in test [7] (6700 nM); 0.0015 ± 0.00071 in test [7] (20000 nM); 0.0035 ± 0.0021 in test [7] (60000 nM).
On to HDF3CGF:TIMP-2, for which the “level (log10)” value is -0.026 ± 0.0028 in test [1] (6700 nM); -0.0335 ± 0.016 in test [1] (20000 nM); -0.009 ± 0.051 in test [1] (60000 nM); 0.004 ± 0.0099 in test [2] (6700 nM); -0.0195 ± 0.0064 in test [2] (20000 nM); -0.0905 ± 0.17 in test [2] (60000 nM). Further, the “level (log10)” value in test [3] (6700 nM) was -0.115 ± 0.013; in test [3] (20000 nM), -0.408 ± 0.017; in test [4] (1100 nM) it was 0.001 ± 0.0042; in test [4] (3300 nM), -0.045 ± 0.016; in test [4] (10000 nM), -0.0325 ± 0.013; in test [5] (6700 nM), -0.0215 ± 0.086. Further, the “level (log10)” value in test [5] (20000 nM) is -0.0155 ± 0.088; in test [5] (60000 nM) it was -0.025 ± 0.075; in test [6], -0.012; in test [7] (6700 nM), 0.0105 ± 0.013; in test [7] (20000 nM), 0.0375 ± 0.021; in test [7] (60000 nM) it was 0.06 ± 0.0014.
